Data from patent US12077503B2, “Substituted cyclic amides and their use as herbicides” (FMC CORPORATION, priority 2015, dated 2024).

What was measured:
Type in all cases: in vivo
[1] = system: ivy-leaved morning glory (Ipomoea hederacea); assay: Test G Post-Emergence Protocol
Description: (§1) Seeds of corn (Zea mays), giant foxtail (Setaria faberi), barnyardgrass (Echinochloa crus-galli), ivy-leaved morning glory (Ipomoea hederacea), redroot pigweed (Amaranthus retroflexus) and velvetleaf (Abutilon theophrasti) were sown in standard soil in pots. After cultivation for 8 days under controlled conditions in a glasshouse (at 24/16° C., day/night; 14 hours light; 65% humidity), the plants were sprayed with an aqueous spray solution derived from the formulation of the technical active ingredient in acetone/water (50:50) solution containing 0.5% Tween 20 (polyoxyethylene sorbitan monolaurate, CAS RN 9005-64-5) to give a final dose of 15.625, 62.5 or 250 g/ha of test compound.
(§2) The test plants were then grown on under controlled conditions in a glasshouse (at 24/16° C., day/night; 14 hours light; 65% humidity) and watered twice daily. After 13 days the test was evaluated (100=total damage to plant; 0=no damage to plant). A dash (-) means no test result.

[2] = system: velvetleaf (Abutilon theophrasti); assay: Test G Post-Emergence Protocol
Description: as §1, §2

[3] = system: barnyardgrass (Echinochloa crus-galli); assay: Test G Post-Emergence Protocol
Description: as §1, §2

[4] = system: giant foxtail (Setaria faberi); assay: Test G Post-Emergence Protocol
Description: as §1, §2

corn (Zea mays) [5] = assay: Test G Post-Emergence Protocol
Description: as §1, §2

[6] = system: redroot pigweed (Amaranthus retroflexus); assay: Test G Post-Emergence Protocol
Description: as §1, §2

[7] = system: ivy-leaved morning glory (Ipomoea hederacea); assay: Test G Pre-Emergence Protocol; details: evaluated after 13 days
Description: as §1, with “one day” for “8 days”
as §2

[8] = system: velvetleaf (Abutilon theophrasti); assay: Test G Pre-Emergence Protocol; details: evaluated after 13 days
Description: as §1, with “one day” for “8 days”
as §2

[9] = system: barnyardgrass (Echinochloa crus-galli); assay: Test G Pre-Emergence Protocol; details: evaluated after 13 days
Description: as §1, with “one day” for “8 days”
as §2

[10] = system: giant foxtail (Setaria faberi); assay: Test G Pre-Emergence Protocol; details: evaluated after 13 days
Description: as §1, with “one day” for “8 days”
as §2

corn (Zea mays) [11] = assay: Test G Pre-Emergence Protocol; details: evaluated after 13 days
Description: as §1, with “one day” for “8 days”
as §2

[12] = system: redroot pigweed (Amaranthus retroflexus); assay: Test G Pre-Emergence Protocol; details: evaluated after 13 days
Description: as §1, with “one day” for “8 days”
as §2

[13] = 15.625 g ai/ha, evaluated after 13 days (100=total damage to plant; 0=no damage to plant)
[14] = 62.5 g ai/ha, evaluated after 13 days, 100=total damage to plant, 0=no damage to plant
[15] = 250 g ai/ha, evaluated after 13 days, 100=total damage to plant, 0=no damage to plant
[16] = 62.5 g ai/ha, 100=total damage to plant, 0=no damage to plant
[17] = 62.5 g ai/ha, evaluated after 13 days
[18] = 250 g ai/ha, evaluated after 13 days

## CN1C[C@H](c2cccc(C(F)(F)F)c2)[C@@H](C(=O)Nc2cccc(F)n2)C1=O [Compound 1816]
[1]; [13]
  Morningglory, Ivy-leaved damage rating: 10
[1]; [14]
  Morningglory, Ivy-leaved damage rating: 60
[1]; [15]
  Morningglory, Ivy-leaved damage rating: 70
[2]; [13]
  Velvetleaf damage rating: 0
[2]; [14]
  Velvetleaf damage rating: 30
[2]; [15]
  Velvetleaf damage rating: 30
[3]; [13]
  Barnyardgrass damage rating: 80
[3]; [14]
  Barnyardgrass damage rating: 80
[3]; [15]
  Barnyardgrass damage rating: 80
[4]; [13]
  Foxtail, Giant damage rating: 80
[4]; [14]
  Foxtail, Giant damage rating: 80
[4]; [15]
  Foxtail, Giant damage rating: 80
Corn (Zea mays) [5]; [13]
  Corn damage rating: 70
Corn (Zea mays) [5]; [14]
  Corn damage rating: 80
Corn (Zea mays) [5]; [15]
  Corn damage rating: 80
[6]; [13]
  Pigweed, Redroot damage rating: 10
[6]; [14]
  Pigweed, Redroot damage rating: 40
[6]; [15]
  Pigweed, Redroot damage rating: 70
[7]; 15.625 g ai/ha
  Morningglory, Ivy-leaved damage rating (100=total damage to plant; 0=no damage to plant): 20
[7]; [16]
  Morningglory, Ivy-leaved damage rating: 60
[7]; 250 g ai/ha
  Morningglory, Ivy-leaved damage rating (100=total damage to plant; 0=no damage to plant): 80
[8]; 15.625 g ai/ha
  Velvetleaf damage rating (100=total damage to plant; 0=no damage to plant): 0
[8]; [16]
  Velvetleaf damage rating: 20
[8]; 250 g ai/ha
  Velvetleaf damage rating (100=total damage to plant; 0=no damage to plant): 60
[9]; 15.625 g ai/ha
  Barnyardgrass damage rating (100=total damage to plant; 0=no damage to plant): 90
[9]; [16]
  Barnyardgrass damage rating: 90
[9]; 250 g ai/ha
  Barnyardgrass damage rating (100=total damage to plant; 0=no damage to plant): 90
[10]; 15.625 g ai/ha
  Foxtail, Giant damage rating (100=total damage to plant; 0=no damage to plant): 90
[10]; [16]
  Foxtail, Giant damage rating: 90
[10]; 250 g ai/ha
  Foxtail, Giant damage rating (100=total damage to plant; 0=no damage to plant): 90
Corn (Zea mays) [11]; 15.625 g ai/ha
  Corn damage rating (100=total damage to plant; 0=no damage to plant): 70
Corn (Zea mays) [11]; [16]
  Corn damage rating: 80
Corn (Zea mays) [11]; 250 g ai/ha
  Corn damage rating (100=total damage to plant; 0=no damage to plant): 80
[12]; 15.625 g ai/ha
  Pigweed, Redroot damage rating (100=total damage to plant; 0=no damage to plant): 0
[12]; [16]
  Pigweed, Redroot damage rating: 40
[12]; 250 g ai/ha
  Pigweed, Redroot damage rating (100=total damage to plant; 0=no damage to plant): 80

## CN1CC(c2ccc(C(F)(F)F)cc2)C(C(=O)Nc2[nH]cnc2[N+](=O)[O-])C1=O (racemic) [Compound 1507]
[1]; [13]
  Morningglory, Ivy-leaved damage rating: 0
[1]; [17]
  Morningglory, Ivy-leaved damage rating (100=total damage to plant; 0=no damage to plant): 0
[1]; [18]
  damage to plant, Morningglory, Ivy-leaved (100=total damage to plant; 0=no damage to plant): 0
[2]; [13]
  Velvetleaf damage rating: 0
[2]; [17]
  Velvetleaf damage rating (100=total damage to plant; 0=no damage to plant): 0
[2]; [18]
  damage to plant, Velvetleaf (100=total damage to plant; 0=no damage to plant): 0
[3]; [13]
  Barnyardgrass damage rating: 0
[3]; [17]
  Barnyardgrass damage rating (100=total damage to plant; 0=no damage to plant): 0
[3]; [18]
  damage to plant, Barnyardgrass (100=total damage to plant; 0=no damage to plant): 0
[4]; [13]
  Foxtail, Giant damage rating: 0
[4]; [17]
  Foxtail, Giant damage rating (100=total damage to plant; 0=no damage to plant): 0
[4]; [18]
  damage to plant, Foxtail, Giant (100=total damage to plant; 0=no damage to plant): 0
Corn (Zea mays) [5]; [13]
  Corn damage rating: 0
Corn (Zea mays) [5]; [17]
  Corn damage rating (100=total damage to plant; 0=no damage to plant): 0
Corn (Zea mays) [5]; [18]
  damage to plant, Corn (100=total damage to plant; 0=no damage to plant): 0
[6]; [13]
  Pigweed, Redroot damage rating: 0
[6]; [17]
  Pigweed, Redroot damage rating (100=total damage to plant; 0=no damage to plant): 0
[6]; [18]
  damage to plant, Pigweed, Redroot (100=total damage to plant; 0=no damage to plant): 0
[7]; 15.625 g ai/ha
  Morning-glory, Ivy-leaved damage rating (100=total damage to plant; 0=no damage to plant): 0
[7]; [16]
  plant damage rating, Morningglory, Ivy-leaved: 0
[7]; 250 g ai/ha
  Morningglory, Ivy-leaved damage rating (100=total damage to plant; 0=no damage to plant): 0
[8]; 15.625 g ai/ha
  Velvetleaf damage rating (100=total damage to plant; 0=no damage to plant): 0
[8]; [16]
  plant damage rating, Velvetleaf: 0
[8]; 250 g ai/ha
  Velvetleaf damage rating (100=total damage to plant; 0=no damage to plant): 0
[9]; 15.625 g ai/ha
  Barnyardgrass damage rating (100=total damage to plant; 0=no damage to plant): 0
[9]; [16]
  plant damage rating, Barnyardgrass: 0
[9]; 250 g ai/ha
  Barnyardgrass damage rating (100=total damage to plant; 0=no damage to plant): 0
[10]; 15.625 g ai/ha
  Foxtail, Giant damage rating (100=total damage to plant; 0=no damage to plant): 0
[10]; [16]
  plant damage rating, Foxtail, Giant: 0
[10]; 250 g ai/ha
  Foxtail, Giant damage rating (100=total damage to plant; 0=no damage to plant): 0
Corn (Zea mays) [11]; 15.625 g ai/ha
  Corn damage rating (100=total damage to plant; 0=no damage to plant): 0
Corn (Zea mays) [11]; [16]
  plant damage rating, Corn: 0
Corn (Zea mays) [11]; 250 g ai/ha
  Corn damage rating (100=total damage to plant; 0=no damage to plant): 0
[12]; 15.625 g ai/ha
  Pigweed, Redroot damage rating (100=total damage to plant; 0=no damage to plant): 0
[12]; [16]
  plant damage rating, Pigweed, Redroot: 0
[12]; 250 g ai/ha
  Pigweed, Redroot damage rating (100=total damage to plant; 0=no damage to plant): 0

## CN1C[C@H](c2ccc(C(F)(F)F)cc2)[C@@H](C(=O)Nc2c[n+]([O-])ccc2C(F)(F)F)C1=O (racemic) [Compound 1732]
[1]; [13]
  Morningglory, Ivy-leaved damage rating: 0
[1]; [14]
  Morningglory, Ivy-leaved damage rating: 0
[1]; [15]
  Morningglory, Ivy-leaved damage rating: 0
[2]; [13]
  Velvetleaf damage rating: 0
[2]; [14]
  Velvetleaf damage rating: 10
[2]; [15]
  Velvetleaf damage rating: 0
[3]; [13]
  Barnyardgrass damage rating: 0
[3]; [14]
  Barnyardgrass damage rating: 0
[3]; [15]
  Barnyardgrass damage rating: 20
[4]; [13]
  Foxtail, Giant damage rating: 0
[4]; [14]
  Foxtail, Giant damage rating: 10
[4]; [15]
  Foxtail, Giant damage rating: 50
Corn (Zea mays) [5]; [13]
  Corn damage rating: 0
Corn (Zea mays) [5]; [14]
  Corn damage rating: 0
Corn (Zea mays) [5]; [15]
  Corn damage rating: 0
[6]; [13]
  Pigweed, Redroot damage rating: 0
[6]; [14]
  Pigweed, Redroot damage rating: 10
[6]; [15]
  Pigweed, Redroot damage rating: 20
[7]; 15.625 g ai/ha
  Morningglory, Ivy-leaved damage rating (100=total damage to plant; 0=no damage to plant): 0
[7]; [16]
  Morningglory, Ivy-leaved damage rating: 0
[7]; 250 g ai/ha
  Morningglory, Ivy-leaved damage rating (100=total damage to plant; 0=no damage to plant): 0
[8]; 15.625 g ai/ha
  Velvetleaf damage rating (100=total damage to plant; 0=no damage to plant): 0
[8]; [16]
  Velvetleaf damage rating: 0
[8]; 250 g ai/ha
  Velvetleaf damage rating (100=total damage to plant; 0=no damage to plant): 10
[9]; 15.625 g ai/ha
  Barnyardgrass damage rating (100=total damage to plant; 0=no damage to plant): 0
[9]; [16]
  Barnyardgrass damage rating: 0
[9]; 250 g ai/ha
  Barnyardgrass damage rating (100=total damage to plant; 0=no damage to plant): 0
[10]; 15.625 g ai/ha
  Foxtail, Giant damage rating (100=total damage to plant; 0=no damage to plant): 0
[10]; [16]
  Foxtail, Giant damage rating: 20
[10]; 250 g ai/ha
  Foxtail, Giant damage rating (100=total damage to plant; 0=no damage to plant): 50
Corn (Zea mays) [11]; 15.625 g ai/ha
  Corn damage rating (100=total damage to plant; 0=no damage to plant): 0
Corn (Zea mays) [11]; [16]
  Corn damage rating: 0
Corn (Zea mays) [11]; 250 g ai/ha
  Corn damage rating (100=total damage to plant; 0=no damage to plant): 0
[12]; 15.625 g ai/ha
  Pigweed, Redroot damage rating (100=total damage to plant; 0=no damage to plant): 0
[12]; [16]
  Pigweed, Redroot damage rating: 0
[12]; 250 g ai/ha
  Pigweed, Redroot damage rating (100=total damage to plant; 0=no damage to plant): 10
